As a reminder, the IC50 is the midpoint of a concentration-inhibition curve.

Here are results for 1 molecule from patent US20230116972A1, “CD38 MODULATORS AND METHODS OF USE THEREOF” (Cytokinetics, Inc., priority 2021, published 2023).

Format in all cases: in vitro ADME
One data set concerns the target T1, CYP2C9 (Homo sapiens, UniProt P11712).
T1 construct: from tissue; host or cells: human liver microsomes (pooled in the time-dependent assay)
Nature of the data set: time dependent inhibition of CYP450 in pooled human microsomes. Here is the method:
(§1) Time dependent inhibition: An assessment of the time-dependent Inhibitory potential of test compounds against the principal human cytochrome P450 isozymes was carried out using standard methods (Grimm et al, “The Conduct of in Vitro Studies to Address Time-Dependent Inhibition of Drug-Metabolizing Enzymes: A Perspective of the Pharmaceutical Research and Manufacturers of America”, Drug Metabolism and Disposition, 37 (7): 1355, 2009). […] Each compound was pre-incubated at 37° C. plus and minus NADPH for 30 min, and with 0 min pre-incubation for assessment of potential time dependent inhibition. LC-MS/MS was used to quantify metabolite formation. […] Note that, in Tables 8 and 9, the “Compound No” corresponds to the compound numbers in Table 1.

For another data set, the target named is T2, CYP1A2 (Homo sapiens, UniProt P05177).
T2 construct: from tissue; host or cells: human liver microsomes (pooled in the time-dependent assay)
T2 sequence (P05177 1-516): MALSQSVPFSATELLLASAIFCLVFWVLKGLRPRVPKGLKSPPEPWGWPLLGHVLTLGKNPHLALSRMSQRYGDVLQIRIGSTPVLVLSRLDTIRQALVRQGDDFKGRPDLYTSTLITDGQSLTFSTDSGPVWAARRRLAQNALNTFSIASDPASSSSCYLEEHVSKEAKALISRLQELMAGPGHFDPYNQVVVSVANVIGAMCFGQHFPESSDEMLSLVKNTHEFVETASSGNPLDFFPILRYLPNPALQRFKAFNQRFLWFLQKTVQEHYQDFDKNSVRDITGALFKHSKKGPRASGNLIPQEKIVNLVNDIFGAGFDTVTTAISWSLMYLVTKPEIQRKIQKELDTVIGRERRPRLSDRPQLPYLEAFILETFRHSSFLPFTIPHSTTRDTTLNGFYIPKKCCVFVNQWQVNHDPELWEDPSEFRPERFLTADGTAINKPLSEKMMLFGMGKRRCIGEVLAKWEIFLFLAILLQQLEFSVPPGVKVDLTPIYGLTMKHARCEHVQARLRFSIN
The data set is described as above. As to the method:
as §1

Another data set addresses T3, CYP2B6 (Homo sapiens, UniProt P20813).
T3 construct: from tissue; host or cells: human liver microsomes (pooled in the time-dependent assay)
T3 sequence (P20813 1-491): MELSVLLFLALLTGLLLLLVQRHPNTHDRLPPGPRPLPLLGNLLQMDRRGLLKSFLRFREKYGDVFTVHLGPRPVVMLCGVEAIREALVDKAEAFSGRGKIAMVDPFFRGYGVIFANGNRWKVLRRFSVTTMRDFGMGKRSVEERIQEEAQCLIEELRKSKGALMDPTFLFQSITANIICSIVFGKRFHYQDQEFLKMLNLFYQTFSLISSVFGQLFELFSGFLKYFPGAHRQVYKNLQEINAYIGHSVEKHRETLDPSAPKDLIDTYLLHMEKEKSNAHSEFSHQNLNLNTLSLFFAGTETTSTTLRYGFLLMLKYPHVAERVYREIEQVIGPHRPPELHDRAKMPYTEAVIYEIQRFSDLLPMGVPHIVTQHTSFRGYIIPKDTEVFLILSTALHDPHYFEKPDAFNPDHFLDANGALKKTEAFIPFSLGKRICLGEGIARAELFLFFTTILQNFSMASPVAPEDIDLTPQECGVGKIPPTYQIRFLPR
The data set is described as above. As to the method:
as §1

The test system of data set [1] is human hepatic cytochrome P450 isozymes (CYP1A2, 2B6, 2C8, 2C9, 2C19, 2D6, and 3A4). The data set is described as follows: time dependent inhibition, statement over all isozymes tested. The note with it: any isozymes; pooled human microsomes; no indication of time dependent inhibition. Here is the method: as §1
[2] abbreviates: between 30 min pre-incubation plus NADPH and 0 min.

Like-named read-outs stand apart in the source and are kept apart here.

T1 sequence (P11712 whole entry): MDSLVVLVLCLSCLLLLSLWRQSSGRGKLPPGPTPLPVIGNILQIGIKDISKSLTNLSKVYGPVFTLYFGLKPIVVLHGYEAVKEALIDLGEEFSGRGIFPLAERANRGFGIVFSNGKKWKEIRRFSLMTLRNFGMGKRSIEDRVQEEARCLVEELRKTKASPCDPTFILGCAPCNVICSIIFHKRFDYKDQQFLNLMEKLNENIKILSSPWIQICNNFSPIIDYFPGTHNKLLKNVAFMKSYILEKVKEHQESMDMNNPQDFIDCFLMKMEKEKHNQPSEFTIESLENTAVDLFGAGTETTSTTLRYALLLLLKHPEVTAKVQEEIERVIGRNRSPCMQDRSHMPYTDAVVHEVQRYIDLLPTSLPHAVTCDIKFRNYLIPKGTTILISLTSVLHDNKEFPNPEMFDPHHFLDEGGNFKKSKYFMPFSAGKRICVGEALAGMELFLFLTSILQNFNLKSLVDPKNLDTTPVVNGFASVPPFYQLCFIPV

`CO[C@H]1CC[C@H](NC(=O)c2nccc(-c3cncn3C)n2)CC1` [Compound 148, N-((1r,4r)-4-methoxycyclohexyl)-4-(1-methyl-1H-imidazol-5-yl)pyrimidine-2-carboxamide]: the “CYP2C9 IC50 fold shift” value on CYP2C9 (setting [2]) is reported as “none”. For the same molecule, the IC50 against CYP2C9 (pre-incubation 0 min) is greater than 30 µM; at CYP2C9 (pre-incubation 30 min (NADPH)), greater than 30 µM; at CYP2C9 (pre-incubation 30 min (NO NADPH)) it was greater than 30 µM; at CYP1A2 (0 min pre-incubation, pooled human microsomes, read-out: IC50 CYP1A2 (reversible inhibition)), 10 µM; at CYP1A2 (pre-incubation 30 min (NADPH), read-out: CYP1A2 IC50), 11.8 µM; on CYP1A2 (pre-incubation 30 min (NO NADPH), read-out: CYP1A2 IC50), 12 µM. The IC50 at CYP2B6 (0 min pre-incubation, pooled human microsomes, read-out: IC50 CYP2B6 (reversible inhibition)) is 26.2 µM; on CYP2B6 (pre-incubation 30 min (NADPH), read-out: CYP2B6 IC50) it was greater than 30 µM; at CYP2B6 (pre-incubation 30 min (NO NADPH), read-out: CYP2B6 IC50) it was 24.4 µM. The “CYP1A2 IC50 fold shift” value on CYP1A2 (setting [2]) came out at 0.8. Also, the “CYP2B6 IC50 fold shift” value at CYP2B6 (setting [2]) was “none”. Besides, the “IC50 fold shift between 30 min pre-incubation plus NADPH and 0 min preincubation” value in data set [1] is reported as no more than 1.5 fold.
